This note sets out measurements from US12545673B2, “Imidazopyridine derivative and pharmaceutical composition comprising same as active ingredient” (TSD LIFE SCIENCES CO., LTD., priority 2019, dated 2026).

Read-outs that look alike come from different tables or passages of the source.

Experiment [1] concerns acute myeloid leukemia cell line U937. Briefly: Cancer cell proliferation inhibitory activity evaluation 2 (CCK-8), U937. Type of experiment: cell-based. Conditions: Homo sapiens, read-out: Cancer cell proliferation inhibitory activity U937.
In experiment [2] the test system is acute lymphoblastic leukemia cell line Jurkat. Briefly: Cancer cell proliferation inhibitory activity evaluation 2 (CCK-8), Jurkat. Type of experiment: cell-based. Conditions: Homo sapiens.
Experiment [3] relates to gastric cancer cell line AGS. Briefly: Cancer cell proliferation inhibitory activity evaluation 2 (CCK-8), AGS. It counts as cell-based. Conditions: Homo sapiens, read-out: Cancer cell proliferation inhibitory activity AGS.
The subject of experiment [4] is gastric cancer cell line Hs746T. Briefly: Cancer cell proliferation inhibitory activity evaluation 2 (CCK-8), Hs746T. Type of experiment: cell-based. Conditions: Homo sapiens.
The subject of experiment [5] is human lung cancer cell line A549. Briefly: Cancer cell proliferation inhibitory activity evaluation 2 (CCK-8), A549. It counts as cell-based.
The next experiment addresses LRRK2 wild-type (Homo sapiens (Human), UniProt Q5S007). Briefly: Evaluation of inhibitory activity against LRRK2 (affinity bead competition binding), wild-type. To be noted: read-out: Residual active values (%) LRRK2; for remaining binding at 0.1 µM: 100 nM; for remaining binding at 0.5 µM: 500 nM. On the procedure: (§1) In order to identify the activity inhibitory effect on the LRRK2 wild-type and LRRK2 mutant (G2019S) kinase of the example compound according to the present disclosure, BL21-derived E. coli bacteria (E. coli) were cultured in a 24-well plate until the growth phase (log phase). After culturing, T7 phage tagged with LRRK2 wild-type or LRRK2 mutant (G2019S) was used to infect the multiplicity of infection (MOI) at 0.4. Thereafter, the E. coli bacteria were stirred at 32° C. for 90 to 150 minutes to allow dissolution. The lysate of E. coli bacteria was centrifuged (6,000×g) and filtered (0.2 μm), and the obtained tagged T7 phage […] a DNA-tagged kinase protein (LRRK2 or LRRK2 G2019S) was obtained.
(§2) After blocking the biotinylated ligand with extra biotin, it is washed with Pierce's buffer, SeaBlock (1% BSA, 0.05% Tween 20, 1 mM DTT) to remove unbound ligand and reduce non-specific binding.
(§3) The compound was prepared at a concentration of 40× in 100% DMSO and used after dilution, and all binding reactions were performed in a final volume of 0.02 ml in a 384-well plate.
(§4) The activity inhibitory effect on the LRRK2 wild-type and LRRK2 mutant (G2019S) kinases of the example compounds according to the present disclosure was measured and shown in Table 10 below.

For the next experiment, the target named is LRRK2 mutant (G2019S) (Homo sapiens (Human), UniProt Q5S007, G2019S). Briefly: Evaluation of inhibitory activity against LRRK2 (affinity bead competition binding), G2019S mutant. To be noted: read-out: Residual active values (%) LRRK2(G2019S); for remaining binding at 0.1 µM: 100 nM; for remaining binding at 0.5 µM: 500 nM. The procedure: as §1, §2, §3, §4
Sequence of LRRK2 mutant (G2019S) (Q5S007 whole entry G2019S, looked up): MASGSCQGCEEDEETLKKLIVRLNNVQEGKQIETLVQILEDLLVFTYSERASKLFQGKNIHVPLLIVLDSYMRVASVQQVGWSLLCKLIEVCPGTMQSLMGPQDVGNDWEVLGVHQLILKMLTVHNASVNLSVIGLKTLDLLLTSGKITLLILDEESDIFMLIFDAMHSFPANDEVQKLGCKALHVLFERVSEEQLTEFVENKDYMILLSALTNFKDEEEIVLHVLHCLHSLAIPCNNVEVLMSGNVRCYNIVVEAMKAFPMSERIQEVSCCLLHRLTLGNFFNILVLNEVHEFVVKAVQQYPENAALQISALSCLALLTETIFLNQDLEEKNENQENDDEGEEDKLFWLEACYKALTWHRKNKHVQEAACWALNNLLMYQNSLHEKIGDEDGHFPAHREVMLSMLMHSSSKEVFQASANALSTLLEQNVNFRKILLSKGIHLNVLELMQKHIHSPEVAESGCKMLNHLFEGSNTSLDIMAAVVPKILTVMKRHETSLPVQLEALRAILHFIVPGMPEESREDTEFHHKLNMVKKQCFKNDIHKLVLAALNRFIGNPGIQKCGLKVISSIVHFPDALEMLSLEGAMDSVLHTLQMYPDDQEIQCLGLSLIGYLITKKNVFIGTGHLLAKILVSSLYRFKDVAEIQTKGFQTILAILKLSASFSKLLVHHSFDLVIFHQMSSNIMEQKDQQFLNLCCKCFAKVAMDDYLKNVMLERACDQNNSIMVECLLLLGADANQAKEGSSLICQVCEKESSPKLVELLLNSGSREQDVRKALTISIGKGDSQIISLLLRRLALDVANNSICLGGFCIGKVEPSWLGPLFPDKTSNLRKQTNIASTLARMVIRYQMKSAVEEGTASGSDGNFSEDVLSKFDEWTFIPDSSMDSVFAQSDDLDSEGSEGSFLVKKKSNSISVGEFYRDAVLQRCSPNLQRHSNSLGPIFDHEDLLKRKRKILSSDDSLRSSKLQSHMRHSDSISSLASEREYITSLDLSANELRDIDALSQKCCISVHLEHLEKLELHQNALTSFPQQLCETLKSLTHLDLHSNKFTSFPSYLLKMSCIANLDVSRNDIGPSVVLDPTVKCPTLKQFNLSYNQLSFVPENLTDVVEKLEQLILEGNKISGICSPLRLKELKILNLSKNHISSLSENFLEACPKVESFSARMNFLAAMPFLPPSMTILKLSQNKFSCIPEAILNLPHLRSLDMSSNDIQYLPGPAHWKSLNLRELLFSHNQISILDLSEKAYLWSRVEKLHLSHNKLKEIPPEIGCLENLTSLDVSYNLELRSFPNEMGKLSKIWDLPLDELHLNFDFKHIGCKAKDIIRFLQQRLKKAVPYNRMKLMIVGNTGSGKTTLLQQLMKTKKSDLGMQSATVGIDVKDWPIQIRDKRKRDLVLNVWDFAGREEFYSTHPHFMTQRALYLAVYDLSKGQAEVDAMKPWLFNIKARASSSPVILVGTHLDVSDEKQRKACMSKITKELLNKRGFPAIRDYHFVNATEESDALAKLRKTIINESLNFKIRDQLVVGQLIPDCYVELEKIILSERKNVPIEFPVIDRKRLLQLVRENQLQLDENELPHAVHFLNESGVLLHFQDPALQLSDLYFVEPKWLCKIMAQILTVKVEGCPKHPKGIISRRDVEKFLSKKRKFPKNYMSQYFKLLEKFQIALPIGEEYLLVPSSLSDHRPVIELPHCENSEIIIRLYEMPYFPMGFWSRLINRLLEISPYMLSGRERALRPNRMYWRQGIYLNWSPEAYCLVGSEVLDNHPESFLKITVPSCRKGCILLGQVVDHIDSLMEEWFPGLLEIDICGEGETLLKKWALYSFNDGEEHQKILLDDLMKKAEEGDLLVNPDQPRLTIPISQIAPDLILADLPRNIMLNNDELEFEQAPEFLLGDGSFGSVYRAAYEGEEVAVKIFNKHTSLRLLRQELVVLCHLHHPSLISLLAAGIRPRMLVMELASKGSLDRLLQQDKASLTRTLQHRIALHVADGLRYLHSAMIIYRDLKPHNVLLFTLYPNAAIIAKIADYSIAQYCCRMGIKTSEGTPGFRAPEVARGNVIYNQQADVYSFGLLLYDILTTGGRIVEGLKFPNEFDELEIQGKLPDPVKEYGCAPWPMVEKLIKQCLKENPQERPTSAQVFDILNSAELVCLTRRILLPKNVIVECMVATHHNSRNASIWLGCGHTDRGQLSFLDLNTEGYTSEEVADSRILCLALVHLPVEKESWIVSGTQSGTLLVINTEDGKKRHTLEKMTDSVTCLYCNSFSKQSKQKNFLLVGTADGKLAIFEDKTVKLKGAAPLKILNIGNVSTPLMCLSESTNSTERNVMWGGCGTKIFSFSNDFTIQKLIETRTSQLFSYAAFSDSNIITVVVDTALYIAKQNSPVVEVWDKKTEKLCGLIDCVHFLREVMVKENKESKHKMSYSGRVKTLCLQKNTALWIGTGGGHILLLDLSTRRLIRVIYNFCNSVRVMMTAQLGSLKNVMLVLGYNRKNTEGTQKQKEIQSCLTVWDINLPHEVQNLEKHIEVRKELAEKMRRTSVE

A further experiment has as its target MLK3 (Homo sapiens (Human), UniProt Q16584). Briefly: Evaluation of inhibitory activity of enzyme units, MLK3 ([γ-33P]-ATP filter assay). To be noted: read-out: IC50(nM) MLK3.
The next experiment has as its system α-SMA. Briefly: Fibrosis inhibition evaluation 2, palmitic acid-induced HepG2, real-time PCR, α-SMA. To be noted: palmitic acid-induced HepG2 (Table 8). (In general: Quantitative PCR measures a nucleic acid by following its amplification.)
For another experiment, the system named is TGF-β1. Briefly: Fibrosis inhibition evaluation 2, palmitic acid-induced HepG2, real-time PCR, TGF-β1.
Another experiment concerns Fibronectin-1. Briefly: Fibrosis inhibition evaluation 2, palmitic acid-induced HepG2, real-time PCR, Fibronectin-1.
The next experiment deals with MLK2 (Homo sapiens (Human), UniProt Q02779). Briefly: Evaluation of inhibitory activity of enzyme units, MLK2 ([γ-33P]-ATP filter assay). Type of experiment: biochemical.
The next experiment concerns the target MLK1 (Homo sapiens (Human), UniProt P80192). Briefly: Evaluation of inhibitory activity of enzyme units, MLK1 ([γ-33P]-ATP filter assay). Type of experiment: biochemical.
Where [6] appears, read: U-937, 10 μM, 72 hours, CCK-8 (Table 3).
[7] abbreviates: 10 μM, 72 hours, CCK-8, read-out: Cancer cell proliferation inhibitory activity Jurkat.
[8] abbreviates: 10 μM, 72 hours, CCK-8, read-out: Cancer cell proliferation inhibitory activity Hs746T.
Setting [9] is: A549, 10 μM, 72 hours, CCK-8, read-out: Cancer cell proliferation inhibitory activity A549.
Where [10] appears, read: 72 h, read-out: Cancer cell proliferation inhibitory activity Jurkat.

Sequence of LRRK2 wild-type (Q5S007 whole entry, looked up): as the sequence (Q5S007 whole entry G2019S, looked up) above, with S2019G counted along it
Sequence of MLK3 (Q16584 whole entry, looked up): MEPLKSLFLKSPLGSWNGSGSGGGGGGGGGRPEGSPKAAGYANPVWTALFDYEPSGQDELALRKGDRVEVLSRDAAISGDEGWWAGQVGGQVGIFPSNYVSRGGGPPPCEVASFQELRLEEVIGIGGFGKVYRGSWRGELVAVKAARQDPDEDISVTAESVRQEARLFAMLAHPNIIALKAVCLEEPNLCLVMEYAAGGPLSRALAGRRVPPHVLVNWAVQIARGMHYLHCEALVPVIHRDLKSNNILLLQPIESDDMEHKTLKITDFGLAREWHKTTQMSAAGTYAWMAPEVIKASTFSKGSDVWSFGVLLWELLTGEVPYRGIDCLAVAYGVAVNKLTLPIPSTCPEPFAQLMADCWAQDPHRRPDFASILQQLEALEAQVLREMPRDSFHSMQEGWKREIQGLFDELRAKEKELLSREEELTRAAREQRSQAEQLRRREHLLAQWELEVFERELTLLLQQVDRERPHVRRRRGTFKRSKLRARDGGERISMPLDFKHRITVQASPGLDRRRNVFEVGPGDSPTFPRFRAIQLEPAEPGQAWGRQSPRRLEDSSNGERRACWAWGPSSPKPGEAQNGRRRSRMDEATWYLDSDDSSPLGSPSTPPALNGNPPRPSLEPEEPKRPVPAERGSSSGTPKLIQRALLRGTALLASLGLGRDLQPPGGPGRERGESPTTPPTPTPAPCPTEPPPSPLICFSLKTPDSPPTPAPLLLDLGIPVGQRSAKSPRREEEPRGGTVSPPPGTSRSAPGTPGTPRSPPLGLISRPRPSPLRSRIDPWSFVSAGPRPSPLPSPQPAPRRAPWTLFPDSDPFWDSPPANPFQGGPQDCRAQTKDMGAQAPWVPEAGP
Sequence of MLK1 (P80192 whole entry, looked up): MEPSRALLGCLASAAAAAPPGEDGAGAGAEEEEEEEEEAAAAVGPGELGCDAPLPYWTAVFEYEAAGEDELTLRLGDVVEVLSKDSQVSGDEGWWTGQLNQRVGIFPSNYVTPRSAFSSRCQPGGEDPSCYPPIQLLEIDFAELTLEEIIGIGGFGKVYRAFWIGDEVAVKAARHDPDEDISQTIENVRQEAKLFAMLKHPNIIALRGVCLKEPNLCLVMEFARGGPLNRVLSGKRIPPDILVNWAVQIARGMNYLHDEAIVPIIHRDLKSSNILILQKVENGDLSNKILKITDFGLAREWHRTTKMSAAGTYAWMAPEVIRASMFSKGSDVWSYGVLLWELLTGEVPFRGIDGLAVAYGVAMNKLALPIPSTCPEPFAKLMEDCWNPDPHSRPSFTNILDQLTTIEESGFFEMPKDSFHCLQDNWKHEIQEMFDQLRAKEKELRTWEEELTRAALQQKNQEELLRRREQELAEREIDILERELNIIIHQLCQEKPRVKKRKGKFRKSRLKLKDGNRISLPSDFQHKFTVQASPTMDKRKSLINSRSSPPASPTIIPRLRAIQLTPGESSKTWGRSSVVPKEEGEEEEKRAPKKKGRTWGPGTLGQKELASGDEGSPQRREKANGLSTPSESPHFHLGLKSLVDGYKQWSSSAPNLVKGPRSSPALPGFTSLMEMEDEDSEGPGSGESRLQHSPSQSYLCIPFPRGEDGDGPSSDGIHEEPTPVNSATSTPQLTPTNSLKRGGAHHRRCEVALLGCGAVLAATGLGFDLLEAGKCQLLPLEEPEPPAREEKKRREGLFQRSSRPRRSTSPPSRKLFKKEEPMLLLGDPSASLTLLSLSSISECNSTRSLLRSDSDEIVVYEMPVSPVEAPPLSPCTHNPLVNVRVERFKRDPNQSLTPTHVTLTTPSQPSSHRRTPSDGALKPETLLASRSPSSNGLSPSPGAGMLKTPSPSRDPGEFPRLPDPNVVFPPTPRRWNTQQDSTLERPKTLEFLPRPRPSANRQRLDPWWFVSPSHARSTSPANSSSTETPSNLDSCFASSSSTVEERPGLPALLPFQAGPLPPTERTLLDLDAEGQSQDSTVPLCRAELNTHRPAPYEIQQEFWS

What is called IC50 is the midpoint of a concentration-inhibition curve. With `CCS(=O)(=O)N1CC[C@H](Nc2c(Br)cnc3[nH]c(-c4cc(C)n(-c5cccc(C(=O)O)c5)c4C)nc23)C1` [Example 58, (S)-3-(3-(6-bromo-7-((1-(ethylsulfonyl)pyrrolidine-3-yl)amino)-3H-imidazo[4,5-b]pyridine-2-yl)-2,5-dimethyl-1H-pyrrol-1-yl)benzoic acid], the inhibition at 10 µM is less than 10% in experiment [1] (setting [6]); less than 10% in [2] (setting [7]); less than 10% in experiment [3] (10 μM, 72 hours, CCK-8); less than 10% in experiment [4] (setting [8]); less than 10% in [5] (setting [9]). Besides, the remaining binding at 0.1 µM came to 5% on LRRK2 wild-type and 1.4% on LRRK2 mutant (G2019S). Further, the remaining binding at 0.5 µM worked out at 0.7% on LRRK2 wild-type and 0.2% at LRRK2 mutant (G2019S). Further, the IC50 on MLK3 came out at 53 nM. Further, in the experiment with α-SMA, the “Relative degree of expression inhibition (%) α-SMA” value was found to be 66.53%. Also, the “Relative degree of expression inhibition (%) TGF-β1” value in the experiment on TGF-β1 is on record as 48.93%. Also, in the experiment with Fibronectin-1, the “Relative degree of expression inhibition (%) Fibronectin-1” value came to 69.83%.
Regarding `Cc1cc(-c2nc3c(Nc4cccc(S(N)(=O)=O)c4)c(Br)cnc3[nH]2)c(C)n1-c1cc(S(N)(=O)=O)ccc1Cl` [Example 36, 3-(3-(6-bromo-7-((3-sulfamoylphenyl)amino)-3H-imidazo[4,5-b]pyridine-2-yl)-2,5-dimethyl-1H-pyrrole-1-yl)-4-chlorobenzenesulfonamide], the inhibition at 10 µM in experiment [1] (setting [6]) was less than 10%; in experiment [2] (setting [7]), less than 10%; in experiment [3] (10 μM, 72 hours, CCK-8) it was less than 10%. In addition, the 50% inhibitory concentration (IC50) at MLK3 was 46 nM. For the same molecule, the “Relative degree of expression inhibition (%) α-SMA” value in the experiment on α-SMA was 79.46%. Moreover, in the experiment with TGF-β1, the “Relative degree of expression inhibition (%) TGF-β1” value is 66.72%. For the same molecule, the “Relative degree of expression inhibition (%) Fibronectin-1” value with Fibronectin-1 is recorded as 82.94%.
For the molecule `CCS(=O)(=O)N1CC[C@H](Nc2c(Br)cnc3[nH]c(-c4cc(C)n(-c5ccccc5)c4C)nc23)C1` [Example 25, (S)-6-bromo-2-(2,5-dimethyl-1-phenyl-1H-pyrrol-3-yl)-N-(1-(ethylsulfonyl)pyrrolidine-3-yl)-3H-imidazo[4,5-b]pyridine-7-amine], the results for the half-inhibitory concentration (IC50) against MLK2, against MLK1 and at MLK3 were 250 nM, 71 nM and 26 nM, respectively. Further, the inhibition at 10 µM in experiment [1] (setting [6]) was 10 to 50%; in [2] (setting [7]), more than 50%; in experiment [3] (10 μM, 72 hours, CCK-8), more than 50%. Also, the remaining binding at 0.1 µM was found to be 49% on LRRK2 wild-type and 15% at LRRK2 mutant (G2019S). The remaining binding at 0.5 µM came to 17% on LRRK2 wild-type and 3.3% on LRRK2 mutant (G2019S).
As for `CCS(=O)(=O)N1CC[C@H](Nc2c(Br)cnc3nc(-c4cc(C)n(-c5cccc(C(=O)N6CCN(C)CC6)c5C)c4C)[nH]c23)C1` [Example 81, (3-(3-(6-bromo-7-(((S)-1-(ethylsulfonyl)pyrrolidine-3-yl)amino)-1H-imidazo[4,5-b]pyridine-2-yl)-2,5-dimethyl-1H-pyrrol-1-yl)-2-methylphenyl) (4-methylpiperazine-1-yl) methanone], the half-maximal inhibitory concentration (IC50) against MLK1 was 14 nM; on MLK3, 9 nM. For the same molecule, the inhibition at 10 µM in experiment [1] (U-937, 72 h) is more than 50%; in experiment [2] (setting [10]), more than 50%; in [3] (72 h), more than 50%; in [4] (72 h, read-out: Cancer cell proliferation inhibitory activity Hs746T), 10 to 50%; in [5] (A549, 72 h, read-out: Cancer cell proliferation inhibitory activity A549), 10 to 50%. In addition, the remaining binding at 0.1 µM at LRRK2 wild-type was 0.7%; on LRRK2 mutant (G2019S), 0%. Further, the results for the remaining binding at 0.5 µM on LRRK2 wild-type and at LRRK2 mutant (G2019S) were 0.6% and 0.1%, respectively. The “Relative degree of expression inhibition (%) α-SMA” value in the experiment on α-SMA came out at 61.69%. Besides, in the experiment with TGF-β1, the “Relative degree of expression inhibition (%) TGF-β1” value is listed as 44.28%. For the same molecule, in the experiment with Fibronectin-1, the “Relative degree of expression inhibition (%) Fibronectin-1” value is given as 61.05%.
In the case of `CCS(=O)(=O)N1CC[C@H](Nc2c(Br)cnc3nc(-c4cc(C)n(-c5cc(NC(=O)CN6CCN(C)CC6)ccc5C)c4C)[nH]c23)C1` [Example 76, N-(3-(3-(6-bromo-7-(((S)-1-(ethylsulfonyl)pyrrolidine-3-yl)amino)-1H-imidazo[4,5-b]pyridine-2-yl)-2,5-dimethyl-1H-pyrrol-1-yl)-4-methylphenyl)-2-(4-methylpiperazine-1-yl) acetamide], on LRRK2 wild-type, the remaining binding at 0.1 µM was found to be 3.6% and the remaining binding at 0.5 µM turned out to be 1.1%. Moreover, at LRRK2 mutant (G2019S), the remaining binding at 0.1 µM came out at 0.9% and the remaining binding at 0.5 µM amounted to 0.1%. The IC50 on MLK3 was 63 nM. The “Relative degree of expression inhibition (%) α-SMA” value in the experiment on α-SMA was found to be 69.54%. Also, the “Relative degree of expression inhibition (%) TGF-β1” value in the experiment on TGF-β1 is reported as 121.79%. In addition, the “Relative degree of expression inhibition (%) Fibronectin-1” value with Fibronectin-1 stood at 93.95%.
As for `Cc1ccc(NC(=O)CN2CCOCC2)cc1-n1c(C)cc(-c2nc3ncc(Br)c(Nc4cccc(S(N)(=O)=O)c4)c3[nH]2)c1C` [Example 88, N-(3-(3-(6-bromo-7-((3-sulfamoylphenyl)amino)-1H-imidazo[4,5-b]pyridine-2-yl)-2,5-dimethyl-1H-pyrrol-1-yl)-4-methylphenyl)-2-morpholinoacetamide], the values for the IC50 against MLK1 and on MLK3 were 82 nM and 52 nM, respectively. Besides, the inhibition at 10 µM in [1] (setting [6]) was 10 to 50%; in experiment [2] (setting [7]), more than 50%; in [3] (10 μM, 72 hours, CCK-8), more than 50%; in [4] (setting [8]) it was more than 50%; in experiment [5] (setting [9]), 10 to 50%. Besides, the remaining binding at 0.1 µM at LRRK2 wild-type turned out to be 73%; at LRRK2 mutant (G2019S), 57%. For the same molecule, the remaining binding at 0.5 µM on LRRK2 wild-type came out at 46%; on LRRK2 mutant (G2019S), 19%. In addition, in the experiment with α-SMA, the “Relative degree of expression inhibition (%) α-SMA” value turned out to be 74.86%. Also, in the experiment with TGF-β1, the “Relative degree of expression inhibition (%) TGF-β1” value is 56.45%. Besides, in the experiment with Fibronectin-1, the “Relative degree of expression inhibition (%) Fibronectin-1” value stood at 86.78%.
For the molecule `CCS(=O)(=O)N1CC[C@H](Nc2ccnc3nc(-c4cc(C)n(-c5ccc(OCCN6CCOCC6)cc5)c4C)[nH]c23)C1` [Example 53, (S)-2-(2,5-dimethyl-1-(4-(2-morpholinoethoxy)phenyl)-1H-pyrrol-3-yl)-N-(1-(ethylsulfonyl)pyrrolidine-3-yl)-1H-imidazo[4,5-b]pyridine-7-amine], the IC50 against MLK1 worked out at 10600 nM; on MLK3, 23200 nM. Moreover, the “Relative degree of expression inhibition (%) α-SMA” value in the experiment on α-SMA is given as 74.74%. Besides, in the experiment on TGF-β1, the “Relative degree of expression inhibition (%) TGF-β1” value is recorded as 33.15%. Also, the “Relative degree of expression inhibition (%) Fibronectin-1” value in the experiment on Fibronectin-1 is listed as 69.92%.
As for `CCS(=O)(=O)N1CC[C@H](Nc2c(Br)cnc3[nH]c(-c4cc(C)n(-c5cccc(S(=O)(=O)N6CCOCC6)c5)c4C)nc23)C1` [Example 11, (S)-6-bromo-2-(2,5-dimethyl-1-(3-(morpholinosulfonyl)phenyl)-1H-pyrrol-3-yl)-N-(1-(ethylsulfonyl)pyrrolidine-3-yl)-3H-imidazo[4,5-b]pyridine-7-amine], the inhibition at 10 µM in [1] (U-937, 72 h) is 10 to 50%; in experiment [2] (setting [10]), more than 50%; in experiment [3] (72 h) it was more than 50%. The figures for the remaining binding at 0.1 µM on LRRK2 wild-type and at LRRK2 mutant (G2019S) were 28% and 7.9%, respectively. Moreover, the figures for the remaining binding at 0.5 µM on LRRK2 wild-type and on LRRK2 mutant (G2019S) were 6.9% and 1.7%, respectively. Also, the half-inhibitory concentration (IC50) on MLK3 came to 7 nM. Besides, the “Relative degree of expression inhibition (%) α-SMA” value in the experiment on α-SMA is recorded as 24.73%. In the experiment with TGF-β1, the “Relative degree of expression inhibition (%) TGF-β1” value stood at 99.40%. Moreover, in the experiment with Fibronectin-1, the “Relative degree of expression inhibition (%) Fibronectin-1” value is 86.85%.
